Here are results for 80 compounds from the METLIN SMRT retention time set (Domingo-Almenara et al. 2019).

A short description of this series: gradient 5% acetonitrile 3 min, to 50% in 2 min, to 85% in 15 min, held 3 min, 100 µL/min. Conditions: column: Zorbax Extend-C18 2.1 x 50 mm; eluents: water / acetonitrile, 0.1% formic acid. The procedure, abridged: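 Standards, all pure, were combined into mixtures of ~100 molecules and run at 100 μL/min on a Zorbax Extend-C18 column (2.1 × 50 mm, 1.8 μm) with water and acetonitrile, each containing 0.1% formic acid. A coupled quadrupole time-of-flight mass spectrometer operated in positive and negative ionization mode. Retention time values come from computationally picked adduct peaks, each inspected manually.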
On to `CCc1nnc(-c2ccc3ccn(CC(=O)Nc4ccc(CN5CCN(CC)CC5)cc4)c3c2)o1`, for which the RP-LC retention time came to 612 s. `COc1ccc(NC(=O)N2CCN(c3nc4ccccc4nc3C(F)(F)F)CC2)cc1` displayed an RP-LC retention time of 993 s. Turning to `Cc1ccccc1CNC(=O)C1(C)CCCN(C(=O)Nc2cccc(Cl)c2C)C1` (stereo not given), the RP-LC retention time amounted to 1060 s. In turn, `CCS(=O)(=O)N1CCCc2cc(C(=O)Nc3cccc(Br)c3)ccc21` yielded an RP-LC retention time of 1040 s.

Regarding `COc1cc(OC)c(NC(=O)c2c(OC)cc(=O)n3c2CCCC3)cc1Cl`, the RP-LC retention time came out at 884 s. `COc1cc(C(=O)Nc2nc(-c3ccc(F)cc3)cs2)cc(OC)c1OC` showed an RP-LC retention time of 1040 s.

`COc1ccc(Cl)cc1NC(=O)N1CCCC(C)(C(=O)NCc2ccccc2C)C1` (stereo not given) had an RP-LC retention time of 1070 s. In turn, `CS(=O)(=O)Nc1cccc(NC(=O)Cn2cccn2)c1` displayed an RP-LC retention time of 970 s.

As for `COc1ccc(-c2c(NC(=O)c3ccco3)n(-c3ccccc3)nc(C)c2=O)cc1`, the RP-LC retention time came to 674 s. In the case of `CCc1nnc(-c2cc(NC(=O)C3CCN(C(C)=O)CC3)c(C)s2)o1`, the RP-LC retention time came to 697 s. Consider `CCC(=O)Nc1ccc(S(=O)(=O)NCCOc2ccc3c(c2)OCO3)cc1`, for which the RP-LC retention time came out at 830 s. For the compound `Cc1ccc(-c2nc3cnc(Br)cn3c2Nc2ccc3c(c2)OCCO3)cc1`, the RP-LC retention time is 956 s. In turn, `CCCNc1cc(N2CCC(CCC(=O)O)CC2)ncn1` showed an RP-LC retention time of 600 s.

Compound `CCOc1ccccc1NC(=O)N1CCC2(CC1)NC(=O)c1ccc(Cl)cc1N2C` had an RP-LC retention time of 858 s. In the case of `CCNC(=O)c1cc(N2CCCC2)nc2ccc(F)cc12`, the RP-LC retention time came out at 580 s. For the compound `Cn1cc(S(=O)(=O)N2CCC(C(=O)NCc3ccccc3)CC2)cc1C(=O)N1CCCC1`, the RP-LC retention time stood at 1040 s. To `CCCCOc1c(C(=O)c2c(F)cc(C)cc2F)cnc2[nH]ncc12` belongs 916 s. In turn, `c1coc(-c2nc(-c3ccc4c(c3)nnn4CCN3CCCCC3)no2)c1` displayed an RP-LC retention time of 652 s. `CCCCN(C)C(=O)c1cn2cc(Cl)ccc2n1` came in with an RP-LC retention time of 736 s. On to `Cc1cc(NC(=O)C2CCN(S(=O)(=O)c3cn(C(C)C)cn3)CC2)ccc1Br`, for which the RP-LC retention time is 876 s.

Turning to `CCOc1ccc(NC(=O)CSc2ccc(S(=O)(=O)c3ccccc3)nn2)cc1`, the RP-LC retention time stood at 906 s. For `O=C(C1CCN(c2ncnc3c2oc2ccccc23)CC1)N1CCN(c2ccccc2F)CC1`, the RP-LC retention time amounted to 832 s. `CC(C)c1ccc(NC(=O)C(=O)NCC2(CO)CC2)cc1` yielded an RP-LC retention time of 797 s. To `Cc1cc(NC(=O)c2c(F)cccc2Cl)n(-c2nc(-c3ccccc3)cs2)n1` belongs 1330 s; to `CC(C)NC(=O)N1CCCC(c2cccc(C(=O)NCc3cccs3)c2)C1` (stereo not given), 799 s. `COc1ccc2[nH]c(=O)c(CCC(=O)NCCN(C)C3CCCCC3)cc2c1`: the RP-LC retention time amounted to 598 s. With `CCCC(NC(=O)Cc1cccc(OC)c1)C(=O)Nc1nc2ccccc2[nH]1` (stereo not given), the RP-LC retention time came out at 700 s. `COc1ccc(-c2nc3cnccn3c2Nc2ccc(C(=O)NCc3ccco3)cc2)cc1` registered an RP-LC retention time of 710 s.

As for `COc1ccc(-c2ncccc2CNS(=O)(=O)c2c(C)cccc2Cl)cc1`, the RP-LC retention time came out at 719 s.

As for `CCCS(=O)(=O)N1CCC(N2C[C@H](OC)[C@@H]2c2cccnc2)CC1`, the RP-LC retention time is 561 s. With `CCOc1ccc(NS(=O)(=O)c2cc(C(=O)Nc3ccc(C)cc3)n[nH]2)cc1`, the RP-LC retention time is 890 s. Take `CC(C)c1ccc(S(=O)(=O)N2C[C@@H](F)C[C@H]2C(=O)N2CCOCC2)cc1`: the RP-LC retention time came out at 802 s. To `Cc1oc(C2CCN(S(=O)(=O)c3ccc(C(C)C)cc3)CC2)nc1C(=O)N1CCCC1` belongs 1070 s; to `O=C(Cn1nc2n(c1=O)CCCC2)Nc1ccc(Br)cc1`, 703 s; to `Cc1cc(NC(=O)N2CCC(c3cc(N)on3)CC2)ccc1Br`, 790 s. `Cc1ccccc1NC(=O)COc1cccc2c(=O)n(C)ccc12` had an RP-LC retention time of 758 s. To `CCCN1C(=O)c2cc(S(=O)(=O)Nc3ccc(F)cc3)ccc2Oc2cccnc21` belongs 1060 s.

`CCOc1ccc(C(C)NC(=O)C2CCN(c3cnc4nccnc4c3)CC2)cc1` (stereo not given) displayed an RP-LC retention time of 712 s. To `c1ccc(-c2nc3ccccc3s2)nc1` belongs 1010 s; to `O=C(Nc1nnc(-c2ccco2)o1)C1c2ccccc2Oc2ccccc21`, 783 s; to `O=C(NCCC(c1ccccc1)c1ccccc1)c1cnc2sccn2c1=O`, 847 s. The value for `COc1ccc(-c2cn3c(CC(=O)Nc4ccc(Br)c(C)c4)csc3n2)cc1` was 914 s. On to `CC(C)NC(=O)C1CC(=O)N(CCc2c[nH]c3ccc(F)cc23)C1` (stereo not given), for which the RP-LC retention time came to 691 s. Regarding `Cc1nnc(NC(=O)Cc2csc(NC(=O)C3CCCC3)n2)s1`, the RP-LC retention time worked out at 677 s. In turn, `CN(C)C(CNC(=O)c1cc(-c2ccccc2)on1)c1ccco1` (stereo not given) yielded an RP-LC retention time of 653 s. Take `O=C(NCc1ccccc1)c1nnc(-c2ccc(S(=O)(=O)N3CCCCC3)cc2)o1`: the RP-LC retention time was determined as 953 s. The compound `Cc1cccc(-c2nc3nc(C)cc(Nc4cccc5nsnc45)n3n2)c1` yielded an RP-LC retention time of 984 s. With `Cn1nc(C(=O)N2CCCC(C(=O)N3CCCC3)C2)c2c1CCN(C(=O)c1c(F)cccc1F)C2` (stereo not given), the RP-LC retention time stood at 686 s.

Consider `O=C(NCCc1ccco1)c1nc(Nc2ccc(F)cc2)c2ccccc2n1`, for which the RP-LC retention time was 784 s.

`Fc1ccc(CN2CC(F)(F)C[C@H]2COc2cccnc2)c(Cl)c1`: the RP-LC retention time came out at 870 s.

Turning to `CCN1CCN(c2cc(C)c3cc(NC(=O)C4CCCCC4)ccc3n2)CC1`, the RP-LC retention time was 579 s.

The compound `CCn1cnc(S(=O)(=O)N2CCC(C(=O)NCc3ccc(F)cc3)CC2)c1` displayed an RP-LC retention time of 700 s.

In turn, `Cc1oc(-c2ccc(C(=O)N3CCN(c4ccccn4)CC3)cc2)nc1CN1CCc2ccccc21` registered an RP-LC retention time of 766 s.

`CC1CCN(c2nc3c(c(=O)n(C)c(=O)n3C)n2Cc2ccc(Br)cc2)CC1` had an RP-LC retention time of 1250 s. As to `CS(=O)(=O)N1CC(c2nc(-c3cccnc3)no2)C2(CCOCC2)C1` (stereo not given), the RP-LC retention time worked out at 630 s. `CCCN1CCCCc2cc(C(=O)NCC(C)C)sc21` had an RP-LC retention time of 1100 s.

Consider `Cc1oc(C2CCN(C(=O)c3cc(F)ccc3F)CC2)nc1C(=O)N1CCCC1`, for which the RP-LC retention time was 769 s. To `Cc1ccc(-c2nc(C3CC(=O)N(c4ccc(F)cc4)C3)no2)c(C)c1` (stereo not given) belongs 1120 s; to `O=C(Cn1cnc2onc(-c3ccc(F)cc3)c2c1=O)N1CCCc2ccccc21`, 1040 s; to `C#CCOCC1CCN(C(=O)CC2CCCCC2)CC1`, 864 s. As to `O=C(Cn1cccc1-c1nc(-c2ccc3c(c2)OCO3)no1)Nc1ccc(Cl)cc1`, the RP-LC retention time is 1070 s. The value for `Cc1ccccc1NC(=O)C1CCCN(c2ncnc3c2nc2n3CCCCC2)C1` (stereo not given) was 766 s; that for `Cc1ccc(-c2ccc(=O)n(CCCC(=O)Nc3ccc(-c4ccc(=O)[nH]n4)cc3)n2)cc1` was 678 s. As to `COc1cc(OC)c(NC(=O)Cn2nc3n(c2=O)CCCC3)cc1Cl`, the RP-LC retention time was 673 s. The value for `COc1cc(C(=O)NC2C=CS(=O)(=O)C2)cc(OC)c1OC` (stereo not given) was 615 s.

In the case of `O=C(CC1c2ncccc2C(=O)N1Cc1ccc(F)cc1)NCc1cc(F)ccc1F` (stereo not given), the RP-LC retention time is 735 s. `COc1ccc(Cl)cc1NC(=O)NC1CCN(c2ccc(C)cc2)C1=O` (stereo not given) returned an RP-LC retention time of 931 s. To `O=C(Cc1ccc2c(c1)OCO2)Nc1ccc2scnc2c1` belongs 702 s; to `O=C(Nc1ccc(Br)cc1F)N1CCN(Cc2ccc3nccnc3c2)CC1`, 627 s. As for `Cc1ccc(-n2c(=O)c3c(cc(C)n3C)n(CC(=O)Nc3ccc(C)c(C)c3)c2=O)cc1`, the RP-LC retention time is 906 s. As to `CCC(C)NC(=O)N1c2cccnc2N(C(C)C)C(=O)C1C` (stereo not given), the RP-LC retention time is 850 s. In turn, `Cc1ccc(C2=NC3(CCN(C(=O)c4ccccc4C)CC3)ON2)cc1` showed an RP-LC retention time of 855 s. On to `CCOc1ccc(-c2nc3ncccn3c2NCc2ccc(F)cc2)cc1`, for which the RP-LC retention time came out at 759 s. `O=C(CCC(=O)N1CCN(c2ccc(=O)n(-c3ccc(Cl)cc3)n2)CC1)N1CCOCC1`: the RP-LC retention time is 659 s. In turn, `Cc1cccc(S(=O)(=O)N2CCC(N3CCN(Cc4ccccc4)C(=O)C3=O)CC2)c1` returned an RP-LC retention time of 838 s.

Compound `Cc1ccc(NC(=O)C2CC(=O)N(CCc3c[nH]c4ccc(C)cc34)C2)cc1` (stereo not given) registered an RP-LC retention time of 843 s. `CCCOc1ccc(-c2noc(Cc3nc(-c4ccc5c(c4)OCO5)cs3)n2)cc1`: the RP-LC retention time was determined as 1310 s. `COc1ccc(-c2nc(C3CC(=O)N(c4ccc(Cl)cc4)C3)no2)c(OC)c1` (stereo not given) came in with an RP-LC retention time of 996 s. The compound `COc1ccccc1C(=O)N1CCCC(COc2ccc(C(=O)NC(C)C)cc2)C1` (stereo not given) showed an RP-LC retention time of 830 s. For `CCn1c(C)c(CCC(=O)Nc2ccccc2)c(=O)n2nc(-c3ccccc3)nc12`, the RP-LC retention time was 847 s.
